The supplement of paper PMC11665569

Assays:
Conditions in all cases: treatment time: 5 days
H358 [1] = assay: relative viability (fraction of vehicle control); higher = more viable / less inhibited
Description: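 CCK-8 viability of H358 cells with empty vector or constitutively active YAP S127A, treated with KRAS G12C inhibitors for 5 days. Absorbance at 450 nm normalised to vehicle control.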

H1792 = test system: H1792
Description: (§1)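 CCK-8 viability of KRAS G12C-mutant cancer cell lines transfected with control, YAP/TAZ or TEAD1-4 siRNAs and treated with KRAS G12C inhibitors for 5 days; IC50 fitted in Prism after normalising absorbance at 450 nm to vehicle control.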

MIAPACA2 = test system: MIAPACA2
Description: as §1

H358 [2] = test system: H358
Description: as §1

KYSE410 = test system: KYSE410
Description: as §1

H2030 = test system: H2030
Description: as §1

H1373 = test system: H1373
Description: as §1

SW1573 = assay: relative viability (fraction of vehicle control); higher = more viable / less inhibited
Description: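 CCK-8 viability of SW1573 cells transfected with control, YAP/TAZ or TEAD1-4 siRNAs and treated with KRAS G12C inhibitors for 5 days. Values are normalised to vehicle control.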

C=C(F)C(=O)N1CCN(c2nc(OC[C@@H]3CCCN3C)nc3c2CCN(c2cccc4cccc(Cl)c24)C3)C[C@@H]1CC#N [MRTX849]
Conditions	IC50 (cell viability, 5 days) [nM]	relative viability
H358 [1], log10 concentration (uM): 0, ectopic expression: YAP S127A	–	0.6
H358 [1], log10 concentration (uM): 0, ectopic expression: empty vector (YAP experiment)	–	0.139
H358 [1], log10 concentration (uM): 0.69897, ectopic expression: YAP S127A	–	0.144
H358 [1], log10 concentration (uM): 0.69897, ectopic expression: empty vector (YAP experiment)	–	0.0333
H358 [1], log10 concentration (uM): -0.30103, ectopic expression: YAP S127A	–	0.811
H358 [1], log10 concentration (uM): -0.30103, ectopic expression: empty vector (YAP experiment)	–	0.217
H358 [1], log10 concentration (uM): -1, ectopic expression: YAP S127A	–	0.733
H358 [1], log10 concentration (uM): -1, ectopic expression: empty vector (YAP experiment)	–	0.328
H358 [1], log10 concentration (uM): -1.30103, ectopic expression: YAP S127A	–	0.811
H358 [1], log10 concentration (uM): -1.30103, ectopic expression: empty vector (YAP experiment)	–	0.361
H358 [1], log10 concentration (uM): -2, ectopic expression: YAP S127A	–	1.02
H358 [1], log10 concentration (uM): -2, ectopic expression: empty vector (YAP experiment)	–	0.678
H358 [1], log10 concentration (uM): -2.30103, ectopic expression: YAP S127A	–	1.1
H358 [1], log10 concentration (uM): -2.30103, ectopic expression: empty vector (YAP experiment)	–	0.783
H358 [1], log10 concentration (uM): -3, ectopic expression: YAP S127A	–	1.27
H358 [1], log10 concentration (uM): -3, ectopic expression: empty vector (YAP experiment)	–	0.828
H358 [1], log10 concentration (uM): -4, ectopic expression: YAP S127A	–	1.12
H358 [1], log10 concentration (uM): -4, ectopic expression: empty vector (YAP experiment)	–	0.778
H358 [2], siRNA knockdown (Con = control): Con	9.45	–
H358 [2], siRNA knockdown (Con = control): TEAD1234_si1	5.61	–
H358 [2], siRNA knockdown (Con = control): TEAD1234_si2	3.74	–
H358 [2], siRNA knockdown (Con = control): YAP_WWTR1_si1	5.52	–
H358 [2], siRNA knockdown (Con = control): YAP_WWTR1_si2	5.33	–
H1373, siRNA knockdown (Con = control): Con	82.1	–
H1373, siRNA knockdown (Con = control): YAP_WWTR1_si1	19.3	–
H1373, siRNA knockdown (Con = control): YAP_WWTR1_si2	11.4	–
H1792, siRNA knockdown (Con = control): Con	304	–
H1792, siRNA knockdown (Con = control): YAP_WWTR1_si1	55	–
H1792, siRNA knockdown (Con = control): YAP_WWTR1_si2	45.6	–
H2030, siRNA knockdown (Con = control): Con	1500	–
H2030, siRNA knockdown (Con = control): TEAD1234_si2	28	–
KYSE410, siRNA knockdown (Con = control): Con	1260	–
KYSE410, siRNA knockdown (Con = control): TEAD1234_si1	415	–
KYSE410, siRNA knockdown (Con = control): TEAD1234_si2	83.3	–
KYSE410, siRNA knockdown (Con = control): YAP_WWTR1_si1	80	–
KYSE410, siRNA knockdown (Con = control): YAP_WWTR1_si2	27.2	–
MIAPACA2, siRNA knockdown (Con = control): Con	115	–
MIAPACA2, siRNA knockdown (Con = control): TEAD1234_si1	52.6	–
MIAPACA2, siRNA knockdown (Con = control): TEAD1234_si2	49.4	–
MIAPACA2, siRNA knockdown (Con = control): YAP_WWTR1_si1	34.4	–
MIAPACA2, siRNA knockdown (Con = control): YAP_WWTR1_si2	60.6	–
SW1573, log10 concentration (uM): 0, siRNA knockdown: TEAD1-4 siRNA 1	–	0.154
SW1573, log10 concentration (uM): 0, siRNA knockdown: TEAD1-4 siRNA 2	–	0.307
SW1573, log10 concentration (uM): 0, siRNA knockdown: YAP/TAZ siRNA 1	–	0.0935
SW1573, log10 concentration (uM): 0, siRNA knockdown: YAP/TAZ siRNA 2	–	0.0411
SW1573, log10 concentration (uM): 0, siRNA knockdown: negative control siRNA	–	0.426
SW1573, log10 concentration (uM): 0.69897, siRNA knockdown: TEAD1-4 siRNA 1	–	0.0234
SW1573, log10 concentration (uM): 0.69897, siRNA knockdown: TEAD1-4 siRNA 2	–	0.127
SW1573, log10 concentration (uM): 0.69897, siRNA knockdown: YAP/TAZ siRNA 1	–	0.00636
SW1573, log10 concentration (uM): 0.69897, siRNA knockdown: YAP/TAZ siRNA 2	–	0.00791
SW1573, log10 concentration (uM): 0.69897, siRNA knockdown: negative control siRNA	–	0.00854
SW1573, log10 concentration (uM): -0.30103, siRNA knockdown: TEAD1-4 siRNA 1	–	0.173
SW1573, log10 concentration (uM): -0.30103, siRNA knockdown: TEAD1-4 siRNA 2	–	0.246
SW1573, log10 concentration (uM): -0.30103, siRNA knockdown: YAP/TAZ siRNA 1	–	0.141
SW1573, log10 concentration (uM): -0.30103, siRNA knockdown: YAP/TAZ siRNA 2	–	0.0897
SW1573, log10 concentration (uM): -0.30103, siRNA knockdown: negative control siRNA	–	0.66
SW1573, log10 concentration (uM): -1, siRNA knockdown: TEAD1-4 siRNA 1	–	0.244
SW1573, log10 concentration (uM): -1, siRNA knockdown: TEAD1-4 siRNA 2	–	0.263
SW1573, log10 concentration (uM): -1, siRNA knockdown: YAP/TAZ siRNA 1	–	0.154
SW1573, log10 concentration (uM): -1, siRNA knockdown: YAP/TAZ siRNA 2	–	0.0905
SW1573, log10 concentration (uM): -1, siRNA knockdown: negative control siRNA	–	0.726
SW1573, log10 concentration (uM): -1.30103, siRNA knockdown: TEAD1-4 siRNA 1	–	0.262
SW1573, log10 concentration (uM): -1.30103, siRNA knockdown: TEAD1-4 siRNA 2	–	0.289
SW1573, log10 concentration (uM): -1.30103, siRNA knockdown: YAP/TAZ siRNA 1	–	0.161
SW1573, log10 concentration (uM): -1.30103, siRNA knockdown: YAP/TAZ siRNA 2	–	0.108
SW1573, log10 concentration (uM): -1.30103, siRNA knockdown: negative control siRNA	–	0.751
SW1573, log10 concentration (uM): -2, siRNA knockdown: TEAD1-4 siRNA 1	–	0.463
SW1573, log10 concentration (uM): -2, siRNA knockdown: TEAD1-4 siRNA 2	–	0.452
SW1573, log10 concentration (uM): -2, siRNA knockdown: YAP/TAZ siRNA 1	–	0.23
SW1573, log10 concentration (uM): -2, siRNA knockdown: YAP/TAZ siRNA 2	–	0.181
SW1573, log10 concentration (uM): -2, siRNA knockdown: negative control siRNA	–	0.847
SW1573, log10 concentration (uM): -2.30103, siRNA knockdown: TEAD1-4 siRNA 1	–	0.552
SW1573, log10 concentration (uM): -2.30103, siRNA knockdown: TEAD1-4 siRNA 2	–	0.5
SW1573, log10 concentration (uM): -2.30103, siRNA knockdown: YAP/TAZ siRNA 1	–	0.345
SW1573, log10 concentration (uM): -2.30103, siRNA knockdown: YAP/TAZ siRNA 2	–	0.308
SW1573, log10 concentration (uM): -2.30103, siRNA knockdown: negative control siRNA	–	0.915
SW1573, log10 concentration (uM): -3, siRNA knockdown: TEAD1-4 siRNA 1	–	0.913
SW1573, log10 concentration (uM): -3, siRNA knockdown: TEAD1-4 siRNA 2	–	0.702
SW1573, log10 concentration (uM): -3, siRNA knockdown: YAP/TAZ siRNA 1	–	0.582
SW1573, log10 concentration (uM): -3, siRNA knockdown: YAP/TAZ siRNA 2	–	0.531
SW1573, log10 concentration (uM): -3, siRNA knockdown: negative control siRNA	–	0.978
SW1573, log10 concentration (uM): -4, siRNA knockdown: TEAD1-4 siRNA 1	–	0.988
SW1573, log10 concentration (uM): -4, siRNA knockdown: TEAD1-4 siRNA 2	–	0.877
SW1573, log10 concentration (uM): -4, siRNA knockdown: YAP/TAZ siRNA 1	–	0.915
SW1573, log10 concentration (uM): -4, siRNA knockdown: YAP/TAZ siRNA 2	–	0.845
SW1573, log10 concentration (uM): -4, siRNA knockdown: negative control siRNA	–	0.997
